Columns and labels:
TNF-α = experiment: tumor necrosis factor alpha (TNF-α) assay; type: cell-based; conditions: FIG. 1; y-axis TNF-α in picograms per milliliter, lower values mean lower inflammation in the cell
Method: (§1) The fractions isolated may be tested for activity against COX-2 or TNF-α using assays as would be known to those having skill in the art. Representative examples of such assays that could be used include a COX-2 inhibitory fluorometric assay or a TNF-α inhibitory fluorometric assay, each of which are commercially available from numerous suppliers.
(§2) The crude sample provided was dissolved in Ethyl acetate and dried down on Silica gel in a 1:3 ratio. Medium pressure chromatography was performed using a Teledyne-Isco combi-flash Torrent system. A 750 gram silica column was used with a Hexanes to Ethyl acetate gradient, which gave 11 fractions. Fraction A was then subjected to high pressure liquid chromatography on a preparative Silica NP column (250×20 mm), with a gradient between Hexanes to 20% ethyl acetate, which gave 4 fractions. The active fraction was further purified, with a gradient of Hexanes to 100% ethyl acetate on a preparative Silica NP column (250×20 mm), which gave 23 fractions. Fraction 17 was subjected to two rounds of NP hplc using an analytical Silica column (250×10 mm), which gave the final pure compound. An LC-20AD Shimadzu system and an SPD-20A UV detector was used for the hplc separations. All steps were guided using bioassay data from the COX-2 and TNF-α assays. […]

COX-2 = target: T1, COX-2 (Homo sapiens, UniProt P35354); experiment: COX-2 assay; type: biochemical; conditions: FIG. 2; compared to control diclofenac and dimethyl sulfoxide blank
T1 sequence (P35354 18-604): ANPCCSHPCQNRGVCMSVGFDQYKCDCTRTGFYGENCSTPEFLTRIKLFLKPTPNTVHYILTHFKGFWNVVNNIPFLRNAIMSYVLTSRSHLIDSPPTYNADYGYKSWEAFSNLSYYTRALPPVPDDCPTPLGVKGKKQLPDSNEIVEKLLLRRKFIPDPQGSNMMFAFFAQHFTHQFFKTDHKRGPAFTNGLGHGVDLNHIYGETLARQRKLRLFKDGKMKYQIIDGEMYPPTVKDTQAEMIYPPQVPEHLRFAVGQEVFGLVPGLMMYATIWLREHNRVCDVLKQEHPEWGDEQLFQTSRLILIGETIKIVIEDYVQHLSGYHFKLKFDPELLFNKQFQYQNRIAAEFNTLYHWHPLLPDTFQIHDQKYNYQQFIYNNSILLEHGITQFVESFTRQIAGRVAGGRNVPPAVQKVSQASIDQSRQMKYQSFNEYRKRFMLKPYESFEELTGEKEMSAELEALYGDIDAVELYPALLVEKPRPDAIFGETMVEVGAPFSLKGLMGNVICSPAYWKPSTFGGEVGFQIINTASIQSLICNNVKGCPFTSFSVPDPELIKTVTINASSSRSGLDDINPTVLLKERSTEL
Method: as §1, §2

C[C@@]12CCC[C@@H]3c4ccccc4[C@@H](C[C@@H]31)OC2=O [compound of formula (I)]
inhibitory activity of TNF-α (levels of TNF-α) (TNF-α): inhibitory activity | inhibitory activity on COX-2 (level of prostaglandins in the sample) (COX-2): limited to no inhibitory activity
